According to the supplement of paper PMC10627819:

Legend:
S. aureus Newman [1] = experiment: Bliss interaction score (quartile over a dose matrix) (fitness difference); higher = more antagonism (negative = synergy)
Procedure, shortened: (§1)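 Each OD595 reading at entry into stationary phase was scaled to the robust mean of the untreated wells on its plate, with a ceiling of 1. These ratios define fitness, and single-drug fitness was inferred from combinations. The Bliss score compares observed fitness with the product-based expectation and is reported as quartiles across all replicate types, technical, biological and donor/recipient.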

B. subtilis 168 [2] = experiment: as above
Procedure, shortened: as §1

S. aureus DSM 20231 = experiment: as above
Procedure, shortened: as §1

S. pneumoniae D39V [3] = experiment: as above
Procedure, shortened: as §1

S. aureus Newman [4] = experiment: fitness (endpoint OD595 vs no drug) (fraction); higher = more growth; conditions: one replicate
Procedure, shortened: (§2)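 Background-subtracted growth curves were the basis for fitness, taken as the optical density at entry into stationary phase over the robust mean of no-drug control wells. A cap of 1 was applied. The curves came from OD595 readings every 30 min for 14 h at 37 °C, in 384-well plates seeded at OD595 0.01 with 30 µl, or 55 µl for S. pneumoniae.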

B. subtilis 168 [5] = experiment: as above
Procedure, shortened: as §2

S. pneumoniae D39V [6] = experiment: as above
Procedure, shortened: as §2
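Wherever Bliss interaction score (quartile over a dose matrix) is given: first quartile when negative (synergy) and third quartile when positive (antagonism).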

CO/N=C(\C(=O)N[C@@H]1C(=O)N2C(C(=O)O)=C(COC(N)=O)CS[C@H]12)c1ccco1 [Cefuroxime] + COc1c(N2C[C@@H]3CCCN[C@@H]3C2)c(F)cc2c(=O)c(C(=O)O)cn(C3CC3)c12 [Moxifloxacin]
Conditions	Bliss interaction score
B. subtilis 168 [2]	0.0178
S. aureus DSM 20231	-0.0502
S. aureus Newman [1]	-0.14
S. pneumoniae D39V [3]	0.0473

fitness
Conditions	first compound 0.04875 µg/mL	first compound 0.0975 µg/mL	first compound 0.195 µg/mL	first compound 0.39 µg/mL	first compound 0.78 µg/mL
B. subtilis 168 [5], partner 0.0312 µg/mL	–	–	0.0354	0.0276	0.0247
B. subtilis 168 [5], partner 0.0625 µg/mL	–	–	0.0331	0.0172	0.0291
B. subtilis 168 [5], partner 0.125 µg/mL	–	–	0.0376	0.0259	0.0192
S. aureus Newman [4], partner 0.0075 µg/mL	0.631	0.593	0.595	–	–
S. aureus Newman [4], partner 0.015 µg/mL	0.439	0.4	0.445	–	–
S. aureus Newman [4], partner 0.03 µg/mL	0.034	0.0177	0.0236	–	–

fitness, B. subtilis 168 [5], one replicate
Conditions	first compound 0.04875 µg/mL	first compound 0.0975 µg/mL	first compound 0.195 µg/mL	first compound 1.562 µg/mL	first compound 3.125 µg/mL	first compound 6.25 µg/mL
partner 0.0312 µg/mL	0.0482	0.0451	–	–	–	–
partner 0.0625 µg/mL	0.0309	0.0348	–	–	–	–
partner 0.125 µg/mL	0.0185	0.0123	–	–	–	–
partner 2 µg/mL	0.0399	0.0244	0.0298	0.0359	0.0258	0.0141
partner 4 µg/mL	0.0357	0.0206	0.0189	0.0269	0.0126	0.0118
partner 8 µg/mL	0.0177	0.0063	0.0088	0.02	0.0184	0.011

CO/N=C(\C(=O)N[C@@H]1C(=O)N2C(C(=O)O)=C(COC(N)=O)CS[C@H]12)c1ccco1 [Cefuroxime] + COc1ccc(C[C@H](N)C(=O)N[C@H]2[C@@H](O)[C@H](n3cnc4c(N(C)C)ncnc43)O[C@@H]2CO)cc1 [Puromycin]
Conditions	Bliss interaction score
B. subtilis 168 [2]	0.1
S. aureus DSM 20231	0.127
S. aureus Newman [1]	0.0321
S. pneumoniae D39V [3]	0.0887

fitness
Conditions	first compound 0.04875 µg/mL	first compound 0.0975 µg/mL	first compound 0.195 µg/mL
B. subtilis 168 [5], partner 0.39 µg/mL	0.758	0.65	0.551
B. subtilis 168 [5], partner 0.78 µg/mL	0.787	0.705	0.539
B. subtilis 168 [5], partner 1.56 µg/mL	0.772	0.678	0.586
S. aureus Newman [4], partner 0.39 µg/mL	0.925	0.95	0.938
S. aureus Newman [4], partner 0.78 µg/mL	0.969	0.945	0.956
S. aureus Newman [4], partner 1.56 µg/mL	0.951	0.98	0.983

fitness, B. subtilis 168 [5], one replicate
Conditions	first compound 1.562 µg/mL	first compound 3.125 µg/mL	first compound 6.25 µg/mL
partner 0.39 µg/mL	0.348	0.268	0.25
partner 0.78 µg/mL	0.369	0.288	0.286
partner 1.56 µg/mL	0.362	0.312	0.253

CO/N=C(\C(=O)N[C@@H]1C(=O)N2C(C(=O)O)=C(COC(N)=O)CS[C@H]12)c1ccco1 [Cefuroxime] + CC1=C\[C@@H](O)CC(=O)Cc2nc(co2)C(=O)N2CCC=C2C(=O)O[C@H](C(C)C)[C@H](C)/C=C/C(=O)NC\C=C\1 [Virginiamycin M1]
Conditions	Bliss interaction score
B. subtilis 168 [2]	0.0564
S. aureus DSM 20231	0.103
S. aureus Newman [1]	-0.0495
S. pneumoniae D39V [3]	-0.0415

fitness
Conditions	partner 0.0625 µg/mL	partner 0.125 µg/mL	partner 0.25 µg/mL
B. subtilis 168 [5], first compound 0.04875 µg/mL	–	0.76	–
B. subtilis 168 [5], first compound 0.195 µg/mL	0.558	0.555	0.538
S. aureus Newman [4], first compound 0.04875 µg/mL	0.927	0.952	0.943
S. aureus Newman [4], first compound 0.0975 µg/mL	0.963	0.992	0.965
S. aureus Newman [4], first compound 0.195 µg/mL	0.89	0.944	0.893

fitness, B. subtilis 168 [5], one replicate
Conditions	first compound 1.562 µg/mL	first compound 3.125 µg/mL	first compound 6.25 µg/mL
partner 0.0625 µg/mL	0.334	0.259	0.239
partner 0.125 µg/mL	0.325	0.26	0.208
partner 0.25 µg/mL	0.309	0.217	0.182

COc1cccc2c1C(=O)c1c(O)c3c(c(O)c1C2=O)C[C@@](O)(C(=O)CO)C[C@@H]3O[C@H]1C[C@H](N)[C@H](O)[C@H](C)O1 [Doxorubicin] + C/C(=C\C(=O)OCCCCCCCCC(=O)O)C[C@@H]1OC[C@H](C[C@@H]2O[C@H]2[C@@H](C)[C@H](C)O)[C@@H](O)[C@H]1O [Pseudomonic acid]
Conditions	Bliss interaction score
B. subtilis 168 [2]	0.12
S. aureus DSM 20231	-0.0156
S. aureus Newman [1]	-0.0226
S. pneumoniae D39V [3]	-0.079

fitness
Conditions	first compound 0.25 µg/mL	first compound 0.5 µg/mL	first compound 0.625 µg/mL	first compound 1 µg/mL	first compound 1.25 µg/mL	first compound 2.5 µg/mL
S. aureus Newman [4], partner 0.0313 µg/mL	–	–	0.0603	–	0.0435	0.0003
S. aureus Newman [4], partner 0.0625 µg/mL	–	–	0.0314	–	0.0203	0.0075
S. aureus Newman [4], partner 0.125 µg/mL	–	–	0.0395	–	0.0395	0.0206
S. pneumoniae D39V [6], partner 0.03 µg/mL	0.916	0.893	–	0.887	–	–
S. pneumoniae D39V [6], partner 0.06 µg/mL	0.73	0.756	–	0.681	–	–
S. pneumoniae D39V [6], partner 0.12 µg/mL	0.484	0.435	–	0.381	–	–

CO/N=C(\C(=O)N[C@@H]1C(=O)N2C(C(=O)O)=C(COC(N)=O)CS[C@H]12)c1ccco1 [Cefuroxime] + O=C(O[C@@H]1Cc2c(O)cc(O)cc2O[C@@H]1c1cc(O)c(O)c(O)c1)c1cc(O)c(O)c(O)c1 [EGCG]
Conditions	Bliss interaction score
B. subtilis 168 [2]	0.158
S. aureus DSM 20231	0.0989
S. aureus Newman [1]	0.0827
S. pneumoniae D39V [3]	0.0461

fitness
Conditions	first compound 0.04875 µg/mL	first compound 0.0975 µg/mL	first compound 0.195 µg/mL
B. subtilis 168 [5], partner 6.25 µg/mL	0.74	0.667	0.438
B. subtilis 168 [5], partner 12.5 µg/mL	0.376	0.493	0.506
B. subtilis 168 [5], partner 25 µg/mL	0.249	0.219	0.17
S. aureus Newman [4], partner 12.5 µg/mL	0.885	0.801	0.879
S. aureus Newman [4], partner 25 µg/mL	0.767	0.773	0.756
S. aureus Newman [4], partner 50 µg/mL	0.688	0.617	0.561

fitness, B. subtilis 168 [5], one replicate
Conditions	first compound 0.39 µg/mL	first compound 0.78 µg/mL	first compound 1.562 µg/mL	first compound 3.125 µg/mL	first compound 6.25 µg/mL
partner 6.25 µg/mL	0.425	0.411	0.356	0.3	0.304
partner 12.5 µg/mL	0.461	0.436	0.195	0.236	0.279
partner 25 µg/mL	0.274	0.318	0.103	0.064	0.0477
